Assay results: US4145554A, “3-Nitropyrazole derivatives” (Eli Lilly and Company, priority 1977, dated 1979)
Converted amounts (≈) assume the structure as drawn. Read-outs that look alike come from different tables or passages of the source.

Assays:
Pasteurella multocida = test: in vitro tube dilution test (MIC); format: cell-based
Text: (§1) Our compound, 1-(2-hydroxyethyl)-3-nitro-4-pyrazolecarboxamide, has been extensively tested in vitro to determine the range of microorganisms against which it is active. The table of data below reports the minimum inhibitory concentration (MIC) at which the compound is effective in controlling a variety of microorganisms in a standard tube dilution test system. The MIC is reported as micrograms of compound per milliliter.
(§2) The other preferred compounds of our invention have also been thoroughly tested in the in vitro tube dilution test.
(§3) Other compounds of our invention have also been tested in the tube dilution test and shown to have in vitro activity against a number of microorganisms. The table below reports tests of a number of exemplary compounds against exemplary microorganisms. The compounds are identified by their numbers in the listing above. The data are reported as the MIC in micrograms per milliliter against the named exemplary microorganisms.

Streptococcus sp. 80 = test: in vitro tube dilution test (MIC); format: cell-based
Text: as §3

[1] = system: Staphylococcus aureus sp. 1130; test: in vitro tube dilution test (MIC); format: cell-based
Text: as §2, §3

Vibrio coli 3811 = test: in vitro tube dilution test (MIC); format: cell-based; settings: Campylobacter coli
Text: as §2, §3

Salmonella dublin = test: in vitro tube dilution test (MIC); format: cell-based; settings: Salmonella enterica
Text: as §2, §3

Mycoplasma gallisepticum = test: in vitro tube dilution test (MIC); format: cell-based; settings: Mycoplasmoides gallisepticum
Text: as §1, §3

Escherichia coli = test: in vitro tube dilution test (MIC); format: cell-based
Text: as §1, §3

Salmonella typhimurium = test: Salmonellosis in chickens, single injection to day-old chicks; format: in vivo; settings: for responders at 60 mg/kg: Salmonella enterica, TYPHIMURIUM, 168 h, single injection of 60 mg./kg., seven days, read-out: Survival (converted)
Protocol: A number of our 3-nitropyrazoles have been tested against an induced infection of Salmonella typhimurium in day-old chicks. The test was conducted by administering a single injection of 60 mg./kg. of the compounds to each of five chicks. The following day, the chicks were challenged by the subcutaneous injection of a dispersion of S. typhimurium organisms sufficient to kill most or all of the untreated control chicks.
Some of the compounds were tested more than once, in which instances the data are reported as the total survivors from the multiple treatment groups. Untreated, challenged control groups of chicks were tested together with each batch of groups of chicks to which test compounds were administered. Since the mortality of the untreated control chicks varied somewhat from one group of tests to another, results of the untreated control groups are reported below with each test.

[2] = Streptococcus sp. 80, tube dilution, read-out: MIC
[3] = Staphylococcus aureus sp. 1130, tube dilution, read-out: MIC
[4] = Vibrio coli 3811, tube dilution, read-out: MIC
[5] = Salmonella dublin, tube dilution, read-out: MIC
[6] = Mycoplasma gallisepticum, tube dilution, read-out: MIC

Structure (SMILES)	MIC (Pasteurella multocida; tube dilution, read-out: MIC) [µg/mL]	MIC (Streptococcus sp. 80; [2]) [µg/mL]	MIC [1, 3] [µg/mL]	MIC (Vibrio coli 3811; [4]) [µg/mL]	MIC (Salmonella dublin; [5]) [µg/mL]	MIC (Mycoplasma gallisepticum; [6]) [µg/mL]	MIC (Escherichia coli; tube dilution, read-out: MIC) [µg/mL]	MIC (Streptococcus sp. 80; Streptococcus, SP.80) [µg/mL]	MIC ([1]; Staphylococcus aureus, SP.1130) [µg/mL]	MIC (Vibrio coli 3811; 3811) [µg/mL]	MIC (Salmonella dublin) [µg/mL]	MIC (Mycoplasma gallisepticum) [µg/mL]	MIC (Escherichia coli) [µg/mL]	responders at 60 mg/kg (Salmonella typhimurium) [%]	MIC (Pasteurella multocida) [µg/mL]	chicks protected of the 5-bird treated group (Salmonella typhimurium; salmonella challenge)
Cn1cc(C(=O)NN=Cc2ccc([N+](=O)[O-])o2)c([N+](=O)[O-])n1 [Compound 74, 1-methyl-3-nitro-4-pyrazolecarboxylic acid, 5-nitrofurfurylidene hydrazide]								50 (≈ 162 µM)	1.56 (≈ 5.06 µM)	0.39 (≈ 1.27 µM)	12.5 (≈ 40.6 µM)	0.78 (≈ 2.53 µM)	6.25 (≈ 20.3 µM)			
CCCn1cc(C(N)=O)c([N+](=O)[O-])n1 [Compound 38, 3-nitro-1-propyl-4-pyrazolecarboxamide]														80		
NC(=O)c1cn(-c2ncc([N+](=O)[O-])s2)nc1[N+](=O)[O-] [Compound 95, 3-nitro-1-(5-nitro-2-thiazolyl)pyrazole-4-carboxamide]								50 (≈ 176 µM)	< 1.56	< 1.56	25 (≈ 88 µM)	12.5 (≈ 44 µM)	> 50		3.12 (≈ 11 µM)	
N#Cc1cn(-c2ncc([N+](=O)[O-])s2)nc1[N+](=O)[O-] [Compound 68, 3-nitro-1-(5-nitro-2-thiazolyl)-4-pyrazolecarbonitrile]								50 (≈ 188 µM)	25 (≈ 93.9 µM)	12.5 (≈ 47 µM)	50 (≈ 188 µM)	25 (≈ 93.9 µM)	50 (≈ 188 µM)		12.5 (≈ 47 µM)	
NC(=O)c1cn(CCN2C(=O)c3ccccc3C2=O)nc1[N+](=O)[O-] [Compound 10, 1-(2-phthalimidoethyl)-3-nitro-4-pyrazolecarboxamide]	25 (≈ 75.9 µM)	6.25 (≈ 19 µM)	6.25 (≈ 19 µM)	50 (≈ 152 µM)	> 50	50 (≈ 152 µM)	50 (≈ 152 µM)									
NC(=O)c1cn(-c2ccc([N+](=O)[O-])cc2)nc1[N+](=O)[O-] [Compound 5, 3-nitro-1-(4-nitrophenyl)-4-pyrazolecarboxamide]								> 50	3.12 (≈ 11.3 µM)	6.25 (≈ 22.5 µM)	> 50	25 (≈ 90.2 µM)	> 50		3.12 (≈ 11.3 µM)	

Further lines, with some results ahead:

MIC (Pasteurella multocida; tube dilution, read-out: MIC) [µg/mL]	MIC (Streptococcus sp. 80; [2]) [µg/mL]	MIC [1, 3] [µg/mL]	MIC (Vibrio coli 3811; [4]) [µg/mL]	MIC (Salmonella dublin; [5]) [µg/mL]	MIC (Mycoplasma gallisepticum; [6]) [µg/mL]	MIC (Escherichia coli; tube dilution, read-out: MIC) [µg/mL]	Structure (SMILES)	MIC (Streptococcus sp. 80; Streptococcus, SP.80) [µg/mL]	MIC ([1]; Staphylococcus aureus, SP.1130) [µg/mL]	MIC (Vibrio coli 3811; 3811) [µg/mL]	MIC (Salmonella dublin) [µg/mL]	MIC (Mycoplasma gallisepticum) [µg/mL]	MIC (Escherichia coli) [µg/mL]	responders at 60 mg/kg (Salmonella typhimurium) [%]	MIC (Pasteurella multocida) [µg/mL]	chicks protected of the 5-bird treated group (Salmonella typhimurium; salmonella challenge)
25 (≈ 160 µM)	> 50	> 50	> 50	> 50	50 (≈ 320 µM)	> 50	NC(=O)c1c[nH]nc1[N+](=O)[O-] [Compound 60, 3(5)-nitro-4-pyrazolecarboxamide]									
> 50	> 50	> 50	25 (≈ 96.8 µM)	> 50	50 (≈ 194 µM)	> 50	CCS(=O)(=O)CCn1cc(C#N)c([N+](=O)[O-])n1 [Compound 86, 1-(2-ethylsulfonyethyl)-3-nitro-4-pyrazolecarbonitrile]									
25 (≈ 109 µM)	> 50	> 50	12.5 (≈ 54.3 µM)	> 50	25 (≈ 109 µM)	> 50	CSCCn1cc(C(N)=O)c([N+](=O)[O-])n1 [Compound 97, 1-[2-(methylthio)ethyl]-3-nitropyrazole-4-carboxamide]									
	100 (≈ 438 µM)	100 (≈ 438 µM)	12.5 (≈ 54.8 µM)	100 (≈ 438 µM)	> 50	100 (≈ 438 µM)	N#Cc1cn(Cc2ccccc2)nc1[N+](=O)[O-] [Compound 70, 1-benzyl-3-nitro-4-pyrazolecarbonitrile]									
12.5 (≈ 65.4 µM)	50 (≈ 262 µM)	50 (≈ 262 µM)	25 (≈ 131 µM)	50 (≈ 262 µM)	50 (≈ 262 µM)	50 (≈ 262 µM)	N#CCCn1cc(C#N)c([N+](=O)[O-])n1 [Compound 73, 4-cyano-3-nitro-1-pyrazolepropionitrile]									
	50 (≈ 275 µM)	6.25 (≈ 34.3 µM)		6.25 (≈ 34.3 µM)		12.5 (≈ 68.6 µM)	N#Cc1cn(CCO)nc1[N+](=O)[O-] [Compound 55, 1-(2-hydroxyethyl)-3-nitro-4-pyrazolecarbonitrile]							80		
	50 (≈ 221 µM)	6.25 (≈ 27.6 µM)	12.5 (≈ 55.3 µM)	12.5 (≈ 55.3 µM)	12.5 (≈ 55.3 µM)	12.5 (≈ 55.3 µM)	Cn1cc(-c2nnc(N)s2)c([N+](=O)[O-])n1 [Compound 102, 2-amino-5-(1-methyl-3-nitro-4-pyrazolyl)-1,3,4-thiadiazole]									at least three chicks of the 5-bird treated group
	100 (≈ 657 µM)	100 (≈ 657 µM)	100 (≈ 657 µM)	100 (≈ 657 µM)	50 (≈ 329 µM)	100 (≈ 657 µM)	Cn1cc(C#N)c([N+](=O)[O-])n1 [Compound 30, 1-methyl-3-nitro-4-pyrazolecarbonitrile]									
